Laboratory results: US20160120863A1, “SLC2A TRANSPORTER INHIBITORS” (IOMET PHARMA LTD., priority 2013, published 2016)

target: T1, human GLUT1 (Homo sapiens, UniProt P11166); assay: [3H]-deoxy-D-glucose uptake assay, GLUT1; type: cell-based; details: [3H]-deoxy-D-glucose uptake in HEK293 cells stably expressing human GLUT1
T1 construct: expressed in transfected cells
T1 sequence (P11166 1-492): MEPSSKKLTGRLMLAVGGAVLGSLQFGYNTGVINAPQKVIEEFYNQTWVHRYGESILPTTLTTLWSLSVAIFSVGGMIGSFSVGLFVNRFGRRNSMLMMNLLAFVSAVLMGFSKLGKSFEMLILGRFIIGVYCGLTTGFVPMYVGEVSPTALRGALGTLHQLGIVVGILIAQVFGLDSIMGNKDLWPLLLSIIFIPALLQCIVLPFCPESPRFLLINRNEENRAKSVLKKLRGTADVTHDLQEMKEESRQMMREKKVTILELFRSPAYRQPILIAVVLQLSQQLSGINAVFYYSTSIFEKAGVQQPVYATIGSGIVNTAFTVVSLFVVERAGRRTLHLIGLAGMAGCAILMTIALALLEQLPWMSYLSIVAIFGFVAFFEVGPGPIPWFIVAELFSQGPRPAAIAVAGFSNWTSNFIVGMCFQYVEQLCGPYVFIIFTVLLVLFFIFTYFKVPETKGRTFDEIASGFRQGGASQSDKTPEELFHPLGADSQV
Protocol: HEK293 cells were engineered to stably express either human GLUT1, GLUT2, GLUt3 or GLUT4 by transfection with the pReceiver-Lv105 plasmid, containing either hGLUT1, hGLUT2, hGLUT3, or hGLUT4 gene constructs with lipofectamine 2000, hGLUT1- hGLUT2- hGLUT3- or hGLUT4-overexpressing polyclonal populations were isolated under purinomycin selective pressure (1 μg/ml) and maintained in Dulbecco's modified Eagle's medium supplemented with 1 μg/ml purinomycin+10% foetal bovine serum (FBS).
60,000 cells per well were seeded overnight into poly-D-lysine coasted 96-well plates. […] 90 μl of test compounds were added in glucose-free uptake buffer and cells were incubated at 37° C. for 30 min.
Cells were then washed twice with ice-cold PBS and 100 μl of Microscint-20 was added per well. Glucose uptake was quantified with a scintillation counter. The half maximal inhibitory concentration (IC50) (a measure of the effectiveness of the test compound in inhibiting glucose uptake) was determined.

SMILES	GLUT1 pIC50
FC(F)(F)Oc1ccccc1-c1ccc2nc(-c3ccc(Cl)cc3)c(CN3CCOCC3)n2c1 [Compound 153]	+− (pIC50 < 4.00)
COc1ccc2nc(-c3ccc(Cl)cc3)c(CN3CCOCC3)n2c1 [Compound 154]	+ (pIC50 4.00-4.99)
Clc1ccc(-c2nc3ccc(Oc4ccccc4)cn3c2CN2CCOCC2)cc1 [Compound 158]	+ (pIC50 4.00-4.99)
O=C1CCCN1c1ccc2nc(-c3ccc(Cl)cc3)c(CN3CCOCC3)n2c1 [Compound 162]	+ (pIC50 4.00-4.99)
CCOC(=O)c1ccc2nc(-c3ccc(Cl)cc3)c(CN3CCOCC3)n2c1 [Compound 163]	+ (pIC50 4.00-4.99)
O=C(c1ccc(F)cc1)N1CCN(Cc2c(-c3ccc(Cl)cc3)nc3cnc(-c4ccccc4)cn23)CC1 [Compound 168]	+++ (pIC50 ≧ 6.00)
Clc1ccc(-c2nc3ccc(-c4ncon4)cn3c2CN2CCOCC2)cc1 [Compound 172]	++ (pIC50 5.00-5.99)
c1ccc(-c2ccc3nc(C4CCCCC4)c(CN4CCOCC4)n3c2)cc1 [Compound 173]	++ (pIC50 5.00-5.99)
Cc1cc2nc(-c3ccc(Cl)cc3)c(CN3CCOCC3)n2cc1-c1ccccc1 [Compound 176]	++ (pIC50 5.00-5.99)
Clc1ccc(-c2nc3ccc(C4=CCCC4)cn3c2CN2CCOCC2)cc1 [Compound 177]	+ (pIC50 4.00-4.99)
O=C(c1cccc(F)c1)N1CCN(Cc2c(-c3ccc(Cl)cc3)nc3ccc(C4CC4)cn23)CC1 [Compound 178]	+++ (pIC50 ≧ 6.00)
N#Cc1ccc2nc(-c3ccc(Cl)cc3)c(CN3CCOCC3)n2c1 [Compound 179]	+− (pIC50 < 4.00)
Clc1ccc(-c2nc3ccc(-c4nnn[nH]4)cn3c2CN2CCOCC2)cc1 [Compound 180]	+− (pIC50 < 4.00)
COc1cccc(-c2nc3ccc(-c4ccccc4F)cn3c2CN2CCN(C(=O)C3CCC3)CC2)c1 [Compound 189]	+++ (pIC50 ≧ 6.00)
COc1cccc(-c2nc3ccc(-c4ccccc4Cl)cn3c2CN2CCN(C(=O)C3CCC3)CC2)c1 [Compound 190]	+++ (pIC50 ≧ 6.00)
COc1cccc(-c2nc3ccc(-c4ccccc4C#N)cn3c2CN2CCN(C(=O)C3CCC3)CC2)c1 [Compound 191]	+++ (pIC50 ≧ 6.00)
COc1cccc(-c2nc3ccc(-c4ccccc4C(N)=O)cn3c2CN2CCN(C(=O)C3CCC3)CC2)c1 [Compound 192]	++ (pIC50 5.00-5.99)
CC(=O)N1CCN(Cc2c(-c3ccc(Cl)cc3)nc3ccc(C4CC4)cn23)CC1 [Compound 194]	++ (pIC50 5.00-5.99)
CCC(=O)N1CCN(Cc2c(-c3ccc(Cl)cc3)nc3ccc(C4CC4)cn23)CC1 [Compound 195]	++ (pIC50 5.00-5.99)
O=C(c1ccncc1)N1CCN(Cc2c(-c3ccc(Cl)cc3)nc3ccc(C4CC4)cn23)CC1 [Compound 196]	+++ (pIC50 ≧ 6.00)
CN(C)C(=O)CNCc1c(-c2ccc(Cl)cc2)nc2ccc(-c3ccccc3)cn12 [Compound 198]	+ (pIC50 4.00-4.99)
O=C(C1CCC1)N1CCN(Cc2c(-c3ccc(Cl)cc3)nc3ccc(-c4ccccc4Cl)cn23)CC1 [Compound 201]	+++ (pIC50 ≧ 6.00)
O=C(C1CCC1)N1CCN(Cc2c(-c3ccc(Cl)cc3)nc3ccc(-c4ccccc4F)cn23)CC1 [Compound 202]	+++ (pIC50 ≧ 6.00)
CC(=O)Nc1ccc2nc(-c3ccc(Cl)cc3)c(CN3CCOCC3)n2c1 [Compound 204]	+− (pIC50 < 4.00)
COc1cccc(-c2nc3ccc(Br)cn3c2CN2CCN(C(=O)C3CCC3)CC2)c1 [Compound 205]	++ (pIC50 5.00-5.99)
COc1cccc(-c2nc3ccc(C4CC4)cn3c2CN2CCN(C(=O)C3CCC3)CC2)c1 [Compound 207]	+++ (pIC50 ≧ 6.00)
COc1cccc(-c2nc3ccccn3c2CN2CCN(C(=O)C3CCC3)CC2)c1 [Compound 208]	+− (pIC50 < 4.00)
Cc1cn2c(CN3CCOCC3)c(-c3ccc(Cl)cc3)nc2cn1 [Compound 209]	+− (pIC50 < 4.00)

The next lines start with the values.

GLUT1 pIC50	SMILES
+++ (pIC50 ≧ 6.00)	O=C(c1cccnc1)N1CCN(Cc2c(-c3ccc(Cl)cc3)nc3ccc(-c4ccccc4)cn23)CC1 [Compound 145]
+++ (pIC50 ≧ 6.00)	O=C(c1ccncc1)N1CCN(Cc2c(-c3ccc(Cl)cc3)nc3ccc(-c4ccccc4)cn23)CC1 [Compound 152]
++ (pIC50 5.00-5.99)	Cc1ccc(-c2nc3ccc(-c4ccccc4)cn3c2CN2CCOCC2)cc1 [Compound 157]
+++ (pIC50 ≧ 6.00)	O=C(c1cscn1)N1CCN(Cc2c(-c3ccc(Cl)cc3)nc3ccc(-c4ccccc4)cn23)CC1 [Compound 159]
++ (pIC50 5.00-5.99)	O=C(c1cccc(F)c1)N1CCCN(Cc2c(-c3ccc(Cl)cc3)nc3ccc(-c4ccccc4)cn23)CC1 [Compound 169]
++ (pIC50 5.00-5.99)	NC(=O)CN1CCN(Cc2c(-c3ccc(Cl)cc3)nc3ccc(-c4ccccc4)cn23)CC1 [Compound 174]
++ (pIC50 5.00-5.99)	Clc1ccc(-c2nc3ccc(-c4ccccc4)cn3c2CN2CCn3ncnc3C2)cc1 [Compound 175]
+++ (pIC50 ≧ 6.00)	O=C(c1cnccn1)N1CCN(Cc2c(-c3ccc(Cl)cc3)nc3ccc(-c4ccccc4)cn23)CC1 [Compound 181]
+− (pIC50 < 4.00)	O=C(O)C1CCN(Cc2c(-c3ccc(Cl)cc3)nc3ccc(-c4ccccc4)cn23)CC1 [Compound 182]
+++ (pIC50 ≧ 6.00)	O=C(c1ccc(Cl)cc1)N1CCN(Cc2c(-c3ccc(Cl)cc3)nc3ccc(-c4ccccc4)cn23)CC1 [Compound 183]
+++ (pIC50 ≧ 6.00)	O=C(c1cncs1)N1CCN(Cc2c(-c3ccc(Cl)cc3)nc3ccc(-c4ccccc4)cn23)CC1 [Compound 184]
++ (pIC50 5.00-5.99)	O=C(c1cccc(Cl)c1)N1CCN(Cc2c(-c3ccc(Cl)cc3)nc3ccc(-c4ccccc4)cn23)CC1 [Compound 185]
+++ (pIC50 ≧ 6.00)	CC(=O)N1CCN(Cc2c(-c3ccc(Cl)cc3)nc3cnc(-c4ccccc4)cn23)CC1 [Compound 186]
++ (pIC50 5.00-5.99)	Clc1ccc(-c2nc3ccc(-c4ccccc4)cn3c2CNC2CCOCC2)cc1 [Compound 188]
+++ (pIC50 ≧ 6.00)	N#Cc1cccc(C(=O)N2CCN(Cc3c(-c4ccc(Cl)cc4)nc4ccc(-c5ccccc5)cn34)CC2)c1 [Compound 193]
+ (pIC50 4.00-4.99)	NC1CCN(Cc2c(-c3ccc(Cl)cc3)nc3ccc(-c4ccccc4)cn23)CC1 [Compound 197]
++ (pIC50 5.00-5.99)	FC(F)(F)c1nnc2n1CCN(Cc1c(-c3ccc(Cl)cc3)nc3ccc(-c4ccccc4)cn13)C2 [Compound 199]
+++ (pIC50 ≧ 6.00)	O=C(C1CCOCC1)N1CCN(Cc2c(-c3ccc(Cl)cc3)nc3ccc(-c4ccccc4)cn23)CC1 [Compound 200]
++ (pIC50 5.00-5.99)	Clc1ccc(-c2nc3ccc(Cc4ccccc4)cn3c2CN2CCOCC2)cc1 [Compound 203]
++ (pIC50 5.00-5.99)	Clc1ccc(-c2nc3ccc(-c4ccccc4)cn3c2CN2CCOCC2)cc1Cl [Compound 206]
++ (pIC50 5.00-5.99)	CC(=O)NC1CCN(Cc2c(-c3ccc(Cl)cc3)nc3ccc(-c4ccccc4)cn23)CC1 [Compound 210]
+− (pIC50 < 4.00)	CCOC(=O)CN1CCN(Cc2c(-c3ccc(Cl)cc3)nc3ccc(-c4ccccc4)cn23)CC1 [Compound 211]
